Assay results: article PMC10819570, “Design, Synthesis, and Biological Evaluation of 2-Substituted Aniline Pyrimidine Derivatives as Potent Dual Mer/c-Met Inhibitors” (Molecules, 2024)
“Also recorded” adds a separate entry of the source.

Key:
[1] = target: T1, hERG potassium currents (Homo sapiens, UniProt Q12809); test: hERG potassium currents assay (automated whole-cell patch clamp, CHO cells); assay type: cell-based; details: CHO cells stably expressing hERG, QPatch
T1 construct: expressed in transfected cells
T1 sequence (Q12809 whole entry): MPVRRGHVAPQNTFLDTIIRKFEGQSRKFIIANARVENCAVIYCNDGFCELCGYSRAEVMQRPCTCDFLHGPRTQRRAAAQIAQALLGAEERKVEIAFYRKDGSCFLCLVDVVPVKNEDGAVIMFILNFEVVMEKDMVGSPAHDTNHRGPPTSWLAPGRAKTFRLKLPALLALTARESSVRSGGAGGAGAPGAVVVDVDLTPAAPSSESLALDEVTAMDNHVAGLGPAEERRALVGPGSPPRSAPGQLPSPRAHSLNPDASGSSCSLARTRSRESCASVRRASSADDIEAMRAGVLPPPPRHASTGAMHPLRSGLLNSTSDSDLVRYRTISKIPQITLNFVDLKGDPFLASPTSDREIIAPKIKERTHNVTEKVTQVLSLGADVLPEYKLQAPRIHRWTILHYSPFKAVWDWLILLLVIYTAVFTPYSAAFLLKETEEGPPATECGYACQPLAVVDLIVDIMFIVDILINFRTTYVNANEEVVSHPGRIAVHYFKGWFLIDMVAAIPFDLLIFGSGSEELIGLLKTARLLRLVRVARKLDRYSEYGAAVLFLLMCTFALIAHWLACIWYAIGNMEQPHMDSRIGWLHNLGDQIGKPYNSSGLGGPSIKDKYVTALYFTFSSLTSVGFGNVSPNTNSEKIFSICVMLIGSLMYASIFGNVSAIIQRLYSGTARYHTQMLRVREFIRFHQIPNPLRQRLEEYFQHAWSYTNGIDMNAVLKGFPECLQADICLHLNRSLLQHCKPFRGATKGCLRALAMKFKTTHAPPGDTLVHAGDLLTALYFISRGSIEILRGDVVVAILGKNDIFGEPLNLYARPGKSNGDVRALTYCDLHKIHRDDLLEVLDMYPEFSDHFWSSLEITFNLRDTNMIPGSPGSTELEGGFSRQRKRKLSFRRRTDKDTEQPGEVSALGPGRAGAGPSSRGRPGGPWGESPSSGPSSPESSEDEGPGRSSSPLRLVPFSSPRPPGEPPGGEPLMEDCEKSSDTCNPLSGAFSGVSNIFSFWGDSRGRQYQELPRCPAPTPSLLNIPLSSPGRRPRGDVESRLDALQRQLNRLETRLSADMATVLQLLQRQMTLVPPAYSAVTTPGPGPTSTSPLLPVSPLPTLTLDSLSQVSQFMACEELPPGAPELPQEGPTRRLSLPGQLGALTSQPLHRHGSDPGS
Description: CHO cells stably expressing the transcript of hERG were investigated by the automated whole-cell patch clamp technique, using the QPatch system (Sophion, Ballerup, Denmark). The detailed procedures of the hERG potassium currents assay were described in our previous work. Each cell was received from six escalating concentrations. Each concentration was tested on at least three cells. The reference compound cisapride was applied at the end of the test compound addition.

[2] = Liver microsome stability assay; assay type: in vitro ADME; details: pH 7.4, human liver microsomes 0.2 mg/mL, test compound 1 μM, NADPH
Description: Stock solution (10 mM) of each of test compound was prepared in DMSO. The stock solution for each compound was then diluted into 200 μM with acetonitrile. Incubation mixtures were prepared in a total volume of 200 μL with final component concentrations as follows: 0.1 M PBS (pH 7.4), NADPH (2 mM), liver microsomes (0.2 mg/mL), and test compound (1 μM) or positive control. NAPDH was added after a 5 min preincubation of all other components at 37 °C, then pipette-mixed to achieve a homogenous suspension and immediately transferred 20 μL of the incubate as a 0 min sample to wells in a “Quenching” plate, followed by pipette-mixing. At 5, 15, 30, and 60 min, we pipette-mixed the incubate and serially transferred samples of 20 μL of the incubate per time point to wells in a separate “Quenching” plate, followed by pipette-mixing. In “Quenching” plates, 200 μL of acetonitrile was added with IS. The 96 wells were centrifuged at 4000 rpm for 10 min. Then 50 μL of supernatant was mixed with 50 μL of ddH2O and injected into the LC-MS/MS system for analysis.

[3] = system: HepG2 cells; test: Antiproliferation assay (CCK-8), HepG2; assay type: cell-based
Description: (§1) The antiproliferative activities of the compounds against HepG2, MDA-MB-231, and HCT116 cell lines were tested by the standard CCK-8 method. Cell viability was measured by Cell Counting Kit-8 (Meilunbio, Dalian, China) according to the manufacturer’s instructions. Briefly, cancer cells were seeded into 96-well plates at a density of 2.5 × 10^3 cells per well. […] Subsequently, CCK-8 solution was added into each well and incubated for an additional 2 h. The absorbance at 450 nm was determined in each well using the BioTek Synergy HTX microplate reader. The assay was performed in triplicate, and each experiment was repeated three times.

[4] = system: MDA-MB-231 cells; test: Antiproliferation assay (CCK-8), MDA-MB-231; assay type: cell-based
Description: as §1

[5] = system: HCT116 cells; test: TUNEL apoptosis assay; assay type: cell-based; details: HCT116, 48 h treatment
Description: The number of TUNEL-positive cells was counted from 5 non-overlap random fields per group; DAPI (blue). Data are representative of three independent experiments.
The One Step TUNEL Apoptosis Assay Kit (Meilunbio, Dalian, China) was used for studying apoptosis in a dose-dependent manner. HCT116 cells (1.5 × 10^4 cells/well) were cultured in TC-treated glass coverslip-containing plates. […] Next, adhered cells were fixed with 4% paraformaldehyde and permeabilized with 0.3% Triton-X-100. TUNEL staining was performed according to the manufacturer’s instructions. The nuclei of cells were counterstained with the DAPI reagent. Images were taken using an Olympus fluorescence microscope. The ED50 for 18c was calculated with the program GraphPad PRISM 9.5. The assay was performed in triplicate, and each experiment was repeated three times.

[6] = system: HCT116 cells; test: Transwell migration assay; assay type: cell-based; details: 24 h
Description: Transwell migration assays were performed using Transwell® chamber inserts (Costar, Cambridge, MA, USA) with a porous polycarbonate membrane (8 μM pore size).
Transwell migration assays were performed using Transwell® chamber inserts (Costar, Cambridge, MA, USA) with a porous polycarbonate membrane ([…]). Briefly, 1.5 × 10^5 HCT116 cells were added in the top chamber with FBS-free culture media containing 0.2% BSA. A culture medium containing 15% FBS was added to the bottom chamber. […] After incubation for 24 h at 37 °C, the cells were fixed in methanol and stained with 0.1% crystal violet. The cells that had not migrated from the top surface of the filters were removed with cotton. Five randomly selected fields were captured by brightfield microscopy for each well. Migrated cells were quantitated by ImageJ (1.53c). Experiments were repeated at least three times in replicates.

[7] = target: T2, Mer kinase (Homo sapiens, UniProt Q12866); test: Mer kinase inhibitory activity assay (in vitro); assay type: biochemical; details: ATP 30 uM, enzyme 0.25 nM; means from three independent experiments
T2 sequence (Q12866 21-999): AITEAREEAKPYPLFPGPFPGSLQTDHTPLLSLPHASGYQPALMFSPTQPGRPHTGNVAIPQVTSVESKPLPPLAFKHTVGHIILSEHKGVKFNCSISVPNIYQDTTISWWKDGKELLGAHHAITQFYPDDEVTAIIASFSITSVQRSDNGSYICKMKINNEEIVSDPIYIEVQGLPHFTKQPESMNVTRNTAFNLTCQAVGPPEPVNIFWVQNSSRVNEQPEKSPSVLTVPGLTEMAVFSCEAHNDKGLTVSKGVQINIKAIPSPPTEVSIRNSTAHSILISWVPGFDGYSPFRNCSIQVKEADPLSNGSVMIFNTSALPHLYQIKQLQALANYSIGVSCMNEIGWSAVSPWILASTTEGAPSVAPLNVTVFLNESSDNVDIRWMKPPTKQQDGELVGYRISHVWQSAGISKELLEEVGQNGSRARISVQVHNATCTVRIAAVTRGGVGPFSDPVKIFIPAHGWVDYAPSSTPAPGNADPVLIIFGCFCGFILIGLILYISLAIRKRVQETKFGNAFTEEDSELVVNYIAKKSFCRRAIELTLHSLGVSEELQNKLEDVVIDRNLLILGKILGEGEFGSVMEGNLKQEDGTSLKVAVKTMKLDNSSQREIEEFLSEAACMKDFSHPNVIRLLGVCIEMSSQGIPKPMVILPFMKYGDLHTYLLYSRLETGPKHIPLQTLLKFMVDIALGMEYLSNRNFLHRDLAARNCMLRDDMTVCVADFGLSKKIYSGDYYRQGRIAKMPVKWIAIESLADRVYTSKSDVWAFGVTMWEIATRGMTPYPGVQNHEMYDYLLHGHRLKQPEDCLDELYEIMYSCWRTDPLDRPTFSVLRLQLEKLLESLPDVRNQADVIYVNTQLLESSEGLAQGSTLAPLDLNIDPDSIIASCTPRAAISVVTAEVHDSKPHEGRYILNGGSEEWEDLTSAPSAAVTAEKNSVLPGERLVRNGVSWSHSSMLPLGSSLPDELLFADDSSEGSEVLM
Description: The in vitro inhibition assays of all final compounds against Mer and c-Met kinase were performed by Shanghai Bioduro Biological Technology Co., Ltd. (Shanghai, China). We prepared 1× buffer: HEPES 50 mM, MgCl2 10 mM, EGTA 1 mM, NP-40 0.0001%, DTT 2 mM; compound dilution with DMSO. For test compounds, a 100 × final concentration solution was prepared. About 100 nL compounds were transferred to a 384-well plate by using the automated liquid handler. The final DMSO% in the assay is 1%. Enzyme stock solutions were diluted with 1× assay buffer to a concentration of 0.5 nM to make a 2× working solution. […] Substrate solutions were diluted with 1× assay buffer. About 5 μL mix or buffer was added manually to the assay plate (ATP final 30 uM and TK-Sub-Biotin final 2 uM) using a multichannel pipette, spun down at 1000 rpm, and centrifuged for 30 s. After incubating at 30 °C for 60 min, 10 μL of detection solution was added to each well of the assay, mixed briefly with a centrifuge, and equilibrated for another 60 min. The luminescence was recorded using Envision.

[8] = system: HCT116 cells; test: Antiproliferation assay (CCK-8), HCT116; assay type: cell-based
Description: as §1, with “Cell” for “The antiproliferative activities of the compounds against HepG2, MDA-MB-231, and HCT116 cell lines were tested by the standard CCK-8 method. Cell”

[9] = ratio of IC50 values to cabozantinib

`CN1CCN(CC(=O)Nc2ccc(Nc3nccc(Oc4ccc(NC(=O)C5(C(=O)Nc6ccc(F)cc6)CC5)cc4)n3)cc2)CC1` [Compound 18c] showed an IC50 [1] of over 40 µM, a microsomal CLint at 1 μM ([2]; read-out: CL Human) of 60 µL/min/mg and a half-life at 1 μM ([2]; read-out: T1/2 Human) of 53.1 min. The IC50 ([3]; Homo sapiens, HepG2, 72 h, read-out: IC50 antiproliferative HepG2) was 6.63 µM, the “Antiproliferative activity against HepG2, times lesser than cabozantinib” value [3, 9] was 3.8 times and the IC50 ([4]; Homo sapiens, MDA-MB-231, 72 h, read-out: IC50 antiproliferative MDA-MB0231) was 8.9 µM. The “Antiproliferative activity against MDA-MB-231, times higher than cabozantinib” value [4, 9] was 3.3 times, the “ED50 apoptosis (TUNEL-positive cells)” value [5] was 10.07 µM and the “Inhibition of HCT116 cell migration vs control” value [6] was “inhibited cell migration; also recorded: significantly inhibited”. For the same compound, the IC50 [7] was 0.0185 ± 0.0023 µM, the IC50 ([8]; Homo sapiens, HCT-116, 72 h, read-out: IC50 antiproliferative HCT116) was 4.95 µM and the “Antiproliferative activity against HCT116, times higher than cabozantinib” value [8, 9] was 1.6 times.
